Patent US20120029167A1, “AUTO MAGNETIC METAL SALEN COMPLEX COMPOUND” (Yoshihiro Ishikawa, priority 2008, published 2012)

How the values were obtained:
[1] = 37° C. (310K) magnetic field-magnetization curve using MPMS7 (Quantum Design); type: physicochemical; details: for magnetic field at which magnetization is greater in comparison to the Fe-salen / magnetic properties from magnetic field-magnetization curve: 37° C. (310K); for magnetization compared among Fe-, Mn-, Cr-, Co-salen: magnetic field 10000 Oe (1 T) or more
Procedure: As a result of measuring the 37° C.
The summary of the results of the 37° C. (310K) magnetic field-magnetization curve of the Fe-salen complex, the Mn-salen complex, the Cr-salen complex, and the Co-salen complex is shown in FIG. 4.
In comparison to the Fe-salen, the Co-salen yields greater magnetization at a magnetic field of 10000 Oe (1 T (tesla)) or more. In comparison to the Fe-salen, the Mn-salen yields greater magnetization at a magnetic field of 30000 Oe (3 T (tesla)) or more.
Nevertheless, if the magnetic field is 10000 Oe (1 T (tesla)) or more, the magnetization of the Co-salen and Mn-salen complex is the greatest and is optimal for a magnetic field drug delivery system which uses a superconducting magnet.

[2] = system: rat L6 cells; assay: Rat L6 cell culture in square flask with magnet, number of cells after 48 hours; type: cell-based; details: powder sprinkled on culture medium, L6 cells confluent at 30%, bar magnet
Procedure: The respective metal salen complex powders of the Fe-salen complex, the Mn-salen complex, the Cr-salen complex, and the Co-salen complex obtained with the foregoing method were sprinkled on a culture medium in an amount that where such powder can be visually confirmed to be drawn to the magnet in a state where the rat L6 cells are confluent at 30%, and a photograph of the state of the culture medium after 48 hours was taken.
Subsequently, a photograph was taken from one end to the other end of the bottom face of the square flask after 48 hours, and the results of calculating the number of cells are shown in FIG. 6. […]
Shown is a state where the bar magnet was caused to come in contact with a square flask as the culture medium of the rat L6 cells. Subsequently, a photograph was taken from one end to the other end of the bottom face of the square flask after 48 hours, and the number of cells was calculated. […]
Shown is a state where the bar magnet was caused to come in contact with a square flask as the culture medium of the rat L6 cells. Subsequently, a photograph was taken from one end to the other end of the bottom face of the square flask after 48 hours, and the number of cells was calculated.

## [Co+2].[O-]c1ccccc1C=NCCN=Cc1ccccc1[O-] [Co-salen complex]
[1]
  magnetic field at which magnetization is greater in comparison to the Fe-salen: ≥ 10000 Oe
  magnetic properties from magnetic field-magnetization curve: paramagnetic properties were observed
  magnetization compared among Fe-, Mn-, Cr-, Co-salen: the greatest

## [Cr+2].[O-]c1ccccc1C=NCCN=Cc1ccccc1[O-] [Cr-salen complex]
[1]
  magnetic properties from magnetic field-magnetization curve: paramagnetic properties were observed

## Oc1ccccc1C=NCCN=Cc1ccccc1O.[Mn] [Mn-salen complex]
[1]
  magnetic field at which magnetization is greater in comparison to the Fe-salen: ≥ 30000 Oe
  magnetic properties from magnetic field-magnetization curve: paramagnetic properties were observed
  magnetization compared among Fe-, Mn-, Cr-, Co-salen: the greatest
[2]
  number of cells proximal from the magnet versus distal: number of cells is extremely lower than the distal
